Activity calls are given as the source filed them. No rule for the calls is given here.
System: rodent carcinogenicity bioassays, tumor incidence
Assay: CCRIS carcinogenicity studies
Details: Dose: 0, Dose: 0
How it was run: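 NCI-built, expert-reviewed records of carcinogenicity and related test outcomes (mutagenicity, tumor promotion/inhibition) compiled from published and report sources, historical span 1985-2011, not updated.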

Q: How did the carcinogen call (Species: MOUSE, Strain/Sex: B6C3F1/FEMALE, Route: ORAL, 1000, 3000, 10000 PPM IN DIET FOR 103 WK (STUDY DURATION: 106 WK), 1000, 3000, 10000 PPM IN DIET FOR 103 WK (STUDY DURATION: 106 WK), Tumor Site: Type of Lesion: LIVER: HEPATOCELLULAR ADENOMA, HEPATOCELLULAR CARCINOMA) turn out when `Nc1cc(S(=O)(=O)[O-])cc2c1C(=O)/C(=N\Nc1ccc(-c3ccc(N/N=C4\C(=O)c5c(N)cc(S(=O)(=O)[O-])cc5C=C4S(=O)(=O)[O-])c(O)c3)cc1O)C(S(=O)(=O)[O-])=C2.[Cu].[Cu].[Na+].[Na+].[Na+].[Na+]` was run?
A: active; positive

Q: What about the carcinogen call (Species: MOUSE, Strain/Sex: B6C3F1/MALE, Route: ORAL, 1000, 3000, 10000 PPM IN DIET FOR 103 WK (STUDY DURATION: 106 WK), 1000, 3000, 10000 PPM IN DIET FOR 103 WK (STUDY DURATION: 106 WK), Tumor Site: Type of Lesion: LIVER: HEPATOCELLULAR ADENOMA, HEPATOCELLULAR CARCINOMA) of the same molecule?
A: active; positive

Q: What about the carcinogen call (Species: RAT, Strain/Sex: F344/FEMALE, Route: ORAL, 1000, 3000, 10000 PPM IN DIET FOR 103 WK (STUDY DURATION: 105 WK), 1000, 3000, 10000 PPM IN DIET FOR 103 WK (STUDY DURATION: 105 WK)) of the same molecule?
A: inactive; negative

Q: What about the carcinogen call (Species: RAT, Strain/Sex: F344/MALE, Route: ORAL, 1000, 3000, 10000 PPM IN DIET FOR 103 WK (STUDY DURATION: 105 WK), 1000, 3000, 10000 PPM IN DIET FOR 103 WK (STUDY DURATION: 105 WK), Tumor Site: Type of Lesion: PHARYNX: SQUAMOUS CELL PAPILLOMA OR SQUAMOUS CELL CARCINOMA) of the same molecule?
A: active; positive

Q: With `Oc1ccccc1O` as the molecule, how does the carcinogen call (Species: MOUSE, Strain/Sex: B6C3F1/FEMALE, Route: ORAL, 0.8% IN DIET FOR 96 WK (STUDY DURATION: 96 WK), Tumor Site: Type of Lesion: GLANDULAR STOMACH: ADENOMA) read?
A: active; positive

Q: And the carcinogen call (Species: MOUSE, Strain/Sex: B6C3F1/FEMALE, Route: ORAL, 0.8% IN POWDERED BASAL DIET FOR 96 WK (STUDY DURATION: 96 WK))?
A: inactive; negative

Q: And the carcinogen call (Species: MOUSE, Strain/Sex: B6C3F1/MALE, Route: ORAL, 0.8% IN DIET FOR 96 WK (STUDY DURATION: 96 WK), Tumor Site: Type of Lesion: GLANDULAR STOMACH: ADENOMA)?
A: active; positive

Q: And the carcinogen call (Species: MOUSE, Strain/Sex: B6C3F1/MALE, Route: ORAL, 0.8% IN POWDERED BASAL DIET FOR 96 WK (STUDY DURATION: 96 WK))?
A: inactive; negative

Q: What about the carcinogen call (Species: RAT, Strain/Sex: F344/FEMALE, Route: ORAL, 0.8% IN DIET FOR 104 WK (STUDY DURATION: 104 WK), Tumor Site: Type of Lesion: GLANDULAR STOMACH: ADENOMA, ADENOCARCINOMA) of the same molecule?
A: active; positive

Q: What about the carcinogen call (Species: RAT, Strain/Sex: F344/FEMALE, Route: ORAL, 0.8% IN POWDERED BASAL DIET FOR 104 WK (STUDY DURATION: 104 WK), Tumor Site: Type of Lesion: GLANDULAR STOMACH: ADENOCARCINOMA) of the same molecule?
A: active; positive

Q: What about the carcinogen call (Species: RAT, Strain/Sex: F344/FEMALE, Route: ORAL, 2% IN DIET FOR 104 WK (STUDY DURATION: 104 WK), Tumor Site: Type of Lesion: GLANDULAR STOMACH: ADENOCARCINOMA) of the same molecule?
A: active; positive

Q: And the carcinogen call (Species: RAT, Strain/Sex: F344/MALE, Route: ORAL, 0.1, 0.2, 0.4, 0.8% IN DIET FOR 104 WK (STUDY DURATION: 104 WK), 0.1, 0.2, 0.4, 0.8% IN DIET FOR 104 WK (STUDY DURATION: 104 WK), Tumor Site: Type of Lesion: GLANDULAR STOMACH: ADENOMA, PANCREAS: ACINAR CELL ADENOMA)?
A: active; positive

Q: And the carcinogen call (Species: RAT, Strain/Sex: F344/MALE, Route: ORAL, 0.16% IN DIET FOR DURATION OF STUDY (STUDY DURATION: 104 WK), Tumor Site: Type of Lesion: GLANDULAR STOMACH: ADENOMA)?
A: active; positive

Q: What about the carcinogen call (Species: RAT, Strain/Sex: F344/MALE, Route: ORAL, 0.8% IN DIET FOR 12, 24, 48, 72, OR 96 WK FOLLOWED BY BASAL DIET FOR 84, 72, 48, 24, AND 0 WK RESPECTIVELY (STUDY DUR, Tumor Site: Type of Lesion: STOMACH: ADENOMA, ADENOCARCINOMA) of the same molecule?
A: active; positive

Q: And the carcinogen call (Species: RAT, Strain/Sex: F344/MALE, Route: ORAL, 0.8% IN DIET FOR 104 WK (STUDY DURATION: 104 WK), Tumor Site: Type of Lesion: GLANDULAR STOMACH: ADENOMA, ADENOCARCINOMA)?
A: active; positive

Q: What about the carcinogen call (Species: RAT, Strain/Sex: F344/MALE, Route: ORAL, 0.8% IN POWDERED BASAL DIET FOR 104 WK (STUDY DURATION: 104 WK), Tumor Site: Type of Lesion: GLANDULAR STOMACH: ADENOCARCINOMA) of the same molecule?
A: active; positive

Q: And the carcinogen call (Species: RAT, Strain/Sex: F344/MALE, Route: ORAL, 2% IN DIET FOR 104 WK (STUDY DURATION: 104 WK), Tumor Site: Type of Lesion: GLANDULAR STOMACH: ADENOCARCINOMA)?
A: active; positive

Q: And the carcinogen call (Species: RAT, Strain/Sex: LEWIS/MALE, Route: ORAL, 0.8% IN DIET FOR 104 WK (STUDY DURATION: 104 WK), Tumor Site: Type of Lesion: GLANDULAR STOMACH: ADENOMA, ADENOCARCINOMA)?
A: active; positive

Q: What about the carcinogen call (Species: RAT, Strain/Sex: SPRAGUE-DAWLEY/MALE, Route: ORAL, 0.8% IN DIET FOR 104 WK (STUDY DURATION: 104 WK), Tumor Site: Type of Lesion: GLANDULAR STOMACH: ADENOMA, ADENOCARCINOMA, FORESTOMACH: PAPILLOMA) of the same molecule?
A: active; positive

Q: What about the carcinogen call (Species: RAT, Strain/Sex: WISTAR/MALE, Route: ORAL, 0.8% IN DIET FOR 104 WK (STUDY DURATION: 104 WK), Tumor Site: Type of Lesion: GLANDULAR STOMACH: ADENOMA, ADENOCARCINOMA) of the same molecule?
A: active; positive

Q: What about the carcinogen call (Species: RAT, Strain/Sex: WKY/MALE, Route: ORAL, 0.8% IN DIET FOR 104 WK (STUDY DURATION: 104 WK), Tumor Site: Type of Lesion: GLANDULAR STOMACH: ADENOMA) of the same molecule?
A: active; positive

Q: How did the carcinogen call (Species: HAMSTER, Strain/Sex: SYRIAN/MALE, Route: INTRAGASTRIC, 50 MG/ML IN 0.2 ML STERILIZED WATER 1/WK FOR 50 WK (TOTAL DOSE 500 MG) (STUDY DURATION: LIFESPAN), Tumor Site: Type of Lesion: LIVER: ADENOMA, HEPATOCELLULAR CARCINOMA, HEMANGIOSARCOMA, NOSE: CARCINOMA) turn out when `O=NN1CCC1` was run?
A: active; positive
